Laboratory results: ChEMBL document CHEMBL3243971, “Synthesis and beta-adrenoceptor activity of the erythro and threo isomers of substituted alpha-hydroxytrimetoquinol” (J Med Chem, 1978)

Columns and labels:
[1] = species: Cavia porcellus; test: Intrinsic activity at beta-adrenoceptor in guinea pig trachea assessed as tracheal relaxation at 10^-10 to 10^-4 M relative to control; format: tissue-based
[2] = species: Cavia porcellus; test: Agonist activity at beta-adrenoceptor in guinea pig trachea assessed as tracheal relaxation; format: tissue-based
[3] = species: Cavia porcellus; test: Intrinsic activity at beta-adrenoceptor in guinea pig atrium assessed as positive chronotropic effect at 10^-10 to 10^-4 M relative to control; format: tissue-based; conditions: Cardiac atrium
[4] = species: Cavia porcellus; test: Agonist activity at beta-adrenoceptor in guinea pig atrium assessed as positive chronotropic effect; format: tissue-based; conditions: Cardiac atrium
[5] = biological target: T1, Adrenergic receptor beta (Rattus norvegicus) (UniProt P18090+P10608+P26255); conditions: Sprague-Dawley
Description: Agonist activity at beta-adrenoceptor in Sprague-Dawley rat fat cells assessed as cAMP accumulation after 10 mins

[6] = biological target: T1, Adrenergic receptor beta (Rattus norvegicus); conditions: Sprague-Dawley, Plasma
Description: Agonist activity at beta-adrenoceptor in Sprague-Dawley rat adipocytes assessed as adenylate cyclase activity in plasmalemma measured as radiolabelled cAMP level after 10 mins by scintillation counting

[7] = biological target: T1, Adrenergic receptor beta (Rattus norvegicus); conditions: Sprague-Dawley; remark: listed apart in the source
Description: Agonist activity at beta-adrenoceptor in Sprague-Dawley rat adipocytes assessed as lipolysis measured as glycerol release

| pD2 [5] | pD2 [6] | pD2 [7] | Structure (SMILES) | Intrinsic activity [1] | pD2 [2] | Intrinsic activity [3] | pD2 [4] |
| --- | --- | --- | --- | --- | --- | --- | --- |
| 6.7 | 6.8 | 7 | COc1cc([C@H](O)[C@@H]2NCCc3cc(O)c(O)cc32)cc(OC)c1OC (racemic) | 0.88 | 6.8 | 0.8 | 6.5 |
| 7.7 | 8.5 | 7.3 | COc1cc(C[C@@H]2NCCc3cc(O)c(O)cc32)cc(OC)c1OC (racemic) | 0.88 | 9 | 0.9 | 9.1 |
| 6.4 | 6.2 | 6.8 | COc1cc([C@@H](O)[C@@H]2NCCc3cc(O)c(O)cc32)cc(OC)c1OC (racemic) | 0.76 | 6 | 0.78 | 6.1 |
